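Exposure lasted 48 hours, with cells grown in 96-well plates and compounds tested at five concentrations. The concentration for 50% growth inhibition is given as GI50. At the TGI there is no net growth.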

These results are taken from PubChem BioAssay (NCI).

Test systems include SNB-75 CNS; RPMI-8226 leukemia; HT29 colon; KM12 colon; NCI/ADR-RES ovarian; SF-295 CNS; MOLT-4 leukemia; OVCAR-4 ovarian; SK-MEL-5 melanoma; MCF7 breast.
What all share (assay): NCI anticancer screen, dose series, 48 h

For `CCC(=O)Nc1ccccc1C#C/C=C\C#Cc1ccccc1C(F)(F)F`, the GI50 in the assay on SNB-75 CNS was 884 nM; in the assay on RPMI-8226 leukemia, 4250 nM; with HT29 colon it was 5.94 µM; in the assay on KM12 colon, 2020 nM; in the assay with NCI/ADR-RES ovarian, 1.48 µM; with SF-295 CNS it was 1 µM. Moreover, the GI50 with MOLT-4 leukemia was 4110 nM; in the assay with OVCAR-4 ovarian, 14.6 µM; with SK-MEL-5 melanoma, 5.44 µM; in the assay with MCF7 breast, 2610 nM. Moreover, the TGI in the assay with SNB-75 CNS was 5.85 µM; with RPMI-8226 leukemia it was more than 50 µM; with HT29 colon, more than 50 µM; with KM12 colon, more than 26.5 µM; with NCI/ADR-RES ovarian, 9.95 µM; in the assay on SF-295 CNS, 5.34 µM. In addition, the TGI was more than 23.3 µM in the assay with MOLT-4 leukemia, more than 50 µM in the assay on OVCAR-4 ovarian, 18.1 µM with SK-MEL-5 melanoma and more than 36.1 µM in the assay with MCF7 breast.
On to `C/C=C/[C@H]1O[C@@H]2C(=C[C@H]1O)C(=O)O[C@H]2C`, for which the GI50 in the assay on SNB-75 CNS is 1230 nM; in the assay on RPMI-8226 leukemia it was 2740 nM; in the assay on HT29 colon, 2.19 µM; in the assay on KM12 colon, 33300 nM; in the assay on NCI/ADR-RES ovarian, 26 µM; with SF-295 CNS, more than 82.1 µM. Also, the GI50 with MOLT-4 leukemia was 2770 nM; with OVCAR-4 ovarian, 12.3 µM; with SK-MEL-5 melanoma it was 9.89 µM; with MCF7 breast it was 31200 nM. In addition, the TGI is 26.4 µM in the assay with SNB-75 CNS; 8.85 µM in the assay on RPMI-8226 leukemia; 27.4 µM with HT29 colon; more than 78 µM with KM12 colon; more than 57 µM in the assay on NCI/ADR-RES ovarian; more than 100 µM in the assay with SF-295 CNS. In addition, the TGI stood at 10.5 µM in the assay with MOLT-4 leukemia, 33.3 µM in the assay on OVCAR-4 ovarian, 23.3 µM in the assay with SK-MEL-5 melanoma and 98 µM in the assay with MCF7 breast.
With `COCCN1CCN(Cc2ccc(-c3n[nH]c4c3C(=O)c3c(NC(=O)NN5CCOCC5)cccc3-4)cc2)CC1`, the GI50 is 21.4 nM in the assay on SNB-75 CNS; 28.8 nM with RPMI-8226 leukemia; 0.0347 µM with HT29 colon; 27.8 nM in the assay with KM12 colon; 0.713 µM in the assay with NCI/ADR-RES ovarian; 0.0345 µM with SF-295 CNS. Further, the GI50 with MOLT-4 leukemia was 21.2 nM; with OVCAR-4 ovarian it was 0.0322 µM; with SK-MEL-5 melanoma it was 0.0269 µM; in the assay with MCF7 breast, 7.66 nM. Further, the TGI with SNB-75 CNS was 0.071 µM; with RPMI-8226 leukemia, 0.0833 µM; with HT29 colon it was 0.299 µM; with KM12 colon it was 0.572 µM; with NCI/ADR-RES ovarian, more than 10 µM; in the assay on SF-295 CNS it was more than 10 µM. Besides, the TGI in the assay with MOLT-4 leukemia is 0.228 µM; in the assay on OVCAR-4 ovarian, 0.932 µM; in the assay on MCF7 breast, more than 5.52 µM.
As to `Cc1[nH]nc2c1N=C(c1ccccc1F)c1cc(C(N)=O)ccc1N2`, the GI50 in the assay with SNB-75 CNS was 83.8 nM; with RPMI-8226 leukemia, more than 25000 nM; in the assay with HT29 colon, 4.92 µM; in the assay with KM12 colon, 1320 nM; with NCI/ADR-RES ovarian it was more than 25 µM; with SF-295 CNS, 1.28 µM. The GI50 in the assay on MOLT-4 leukemia is 6630 nM; in the assay with OVCAR-4 ovarian, 5.25 µM; with SK-MEL-5 melanoma, 3.11 µM; with MCF7 breast, 592 nM. The TGI in the assay on SNB-75 CNS is 1.69 µM; in the assay on RPMI-8226 leukemia it was more than 25 µM; with HT29 colon, more than 25 µM; with KM12 colon, more than 16.3 µM; in the assay with NCI/ADR-RES ovarian it was more than 25 µM; in the assay on SF-295 CNS it was 24.9 µM. The TGI in the assay with MOLT-4 leukemia is 22 µM; in the assay with OVCAR-4 ovarian, more than 25 µM; with SK-MEL-5 melanoma, 9.03 µM; with MCF7 breast, more than 20 µM.
`Cn1c2ccccc2c2c3[nH][nH]c(=O)c3c3c4ccccc4[nH]c3c21`: the GI50 is 355 nM with SNB-75 CNS; 2960 nM in the assay with RPMI-8226 leukemia; 3.13 µM with HT29 colon; 493 nM in the assay on KM12 colon; 4.02 µM in the assay on NCI/ADR-RES ovarian; 3.14 µM in the assay with SF-295 CNS. Moreover, the GI50 with MOLT-4 leukemia is 1890 nM; in the assay with OVCAR-4 ovarian, 2.6 µM; in the assay with SK-MEL-5 melanoma, 1.37 µM; with MCF7 breast, 1630 nM. The TGI in the assay with SNB-75 CNS was determined as 3.53 µM; with RPMI-8226 leukemia, 9.2 µM; in the assay with HT29 colon it was 50.8 µM; in the assay on KM12 colon, 10.5 µM; in the assay with NCI/ADR-RES ovarian it was 37.5 µM; in the assay on SF-295 CNS, 10.9 µM. Besides, the TGI stood at 5.55 µM in the assay with MOLT-4 leukemia, 13.2 µM with OVCAR-4 ovarian, 5.04 µM in the assay on SK-MEL-5 melanoma and 10.4 µM with MCF7 breast.
With `COC(=O)C(CBr)CBr`, the TGI with SNB-75 CNS was 31.4 µM; in the assay on RPMI-8226 leukemia it was 3.97 µM; in the assay on HT29 colon it was 11 µM; in the assay with KM12 colon, 24.3 µM; in the assay with NCI/ADR-RES ovarian, 8.45 µM; with SF-295 CNS, 31.1 µM. The TGI in the assay with MOLT-4 leukemia is 16.4 µM; in the assay with OVCAR-4 ovarian, 8.58 µM; with SK-MEL-5 melanoma it was 25.1 µM; with MCF7 breast, 20.6 µM.
For the molecule `Cc1[nH]c(-c2nc3ccccc3[nH]2)c(C)c1C(=O)NC(C)C1CCCCC1` (centres undefined), the GI50 in the assay with SNB-75 CNS is 3620 nM; in the assay on RPMI-8226 leukemia, 4350 nM; with HT29 colon it was 4.89 µM; with KM12 colon, 10200 nM; in the assay on NCI/ADR-RES ovarian it was 10.2 µM; in the assay on SF-295 CNS, 4.8 µM. Besides, the GI50 with MOLT-4 leukemia was 4950 nM; in the assay with OVCAR-4 ovarian it was 12.4 µM; in the assay on SK-MEL-5 melanoma it was 10.3 µM; in the assay with MCF7 breast, 4010 nM. Moreover, the TGI in the assay on SNB-75 CNS came out at 16.4 µM; in the assay on RPMI-8226 leukemia it was 17.7 µM; with HT29 colon, 38.2 µM; in the assay with KM12 colon it was 22.8 µM; in the assay with NCI/ADR-RES ovarian it was 28 µM; with SF-295 CNS, 16.8 µM. For the same molecule, the TGI turned out to be 28.1 µM in the assay with MOLT-4 leukemia, 26.8 µM in the assay with OVCAR-4 ovarian, 22.3 µM in the assay on SK-MEL-5 melanoma and 19.2 µM with MCF7 breast.
As for `COC(=O)/C=C1/SC(N2N=C(c3cccs3)CC2c2ccc(F)cc2)=NC1=O` (centres undefined), the GI50 was 1640 nM with SNB-75 CNS; 2080 nM with RPMI-8226 leukemia; 2.28 µM in the assay on HT29 colon; 1920 nM with KM12 colon; 2.84 µM in the assay on NCI/ADR-RES ovarian; 3.24 µM in the assay on SF-295 CNS. For the same molecule, the GI50 was 2650 nM in the assay on MOLT-4 leukemia, 2.64 µM with OVCAR-4 ovarian, 1.78 µM in the assay with SK-MEL-5 melanoma and 2340 nM in the assay with MCF7 breast. For the same molecule, the TGI amounted to 7.28 µM in the assay on SNB-75 CNS; 5.36 µM in the assay with RPMI-8226 leukemia; 4.54 µM in the assay on HT29 colon; 3.78 µM in the assay with KM12 colon; 8.61 µM in the assay with NCI/ADR-RES ovarian; 13.5 µM with SF-295 CNS. Moreover, the TGI in the assay on MOLT-4 leukemia was determined as 7.25 µM; in the assay with OVCAR-4 ovarian, 7.49 µM; in the assay with SK-MEL-5 melanoma, 3.36 µM; with MCF7 breast, 8.06 µM.
